Measurements reported in US9642367B2, “Microbicidal composition” (Dow Global Technologies LLC, priority 2013, dated 2017).

How the values were obtained:
Format in all cases: cell-based
[1] = tested on: Escherichia coli (E. coli, ATCC #8739); assay: MIC / synergy evaluation in 96 well microtiter plate, bacteria in Tryptic Soy Broth; conditions: visual turbidity; for MIC: Escherichia coli, ATCC8739, single active acting alone, read-out: Minimum Inhibitory Concentration
From the text: (§1) One measure of synergism is the industrially accepted method described by Kull, F. C.; Eisman, P. C.; Sylwestrowicz, H. D. and Mayer, R. L., in Applied Microbiology 9:538-541 (1961), using the ratio determined by the formula: Qa/QA+Qb/QB=Synergy Index (“SI”) wherein:
(§2) QA=concentration of compound A (first component) in ppm, acting alone, which produced an end point (MIC of Compound A).
(§3) Qa=concentration of compound A in ppm, in the mixture, which produced an end point.
(§4) QB=concentration of compound B (second component) in ppm, acting alone, which produced an end point (MIC of Compound B).
(§5) Qb=concentration of compound B in ppm, in the mixture, which produced an end point.
(§6) When the sum of Qa/QA and Qb/QB is greater than one, antagonism is indicated. […] The lower the SI, the greater the synergy shown by that particular mixture. The minimum inhibitory concentration (MIC) of a microbicide is the lowest concentration tested under a specific set of conditions that prevents the growth of added microorganisms. The microorganisms tested were Escherichia coli(E. coli, ATCC #8739), a yeast, Candida albicans (C. albicans, ATCC #10231) and mold, Aspergillus niger (A. niger, ATCC #16404).
(§7) MBIT synergy with a secondary biocide was determined by evaluating the minimum biocide or biocide blend concentration required to inhibit microbial growth. All studies were conducted using a 96 well microtiter plate format. For all studies, 200 μl of microbial growth media, containing various concentrations of MBIT alone, the secondary biocide alone, or combinations of both biocide chemistries, was added to individual wells of a microtiter plate. Specifically, Tryptic Soy Broth (TSB) was utilized for bacteria (E. coli, ATCC #8739), Yeast Malt Extract Broth (YMB) for yeast (Candida albicans, ATCC #10231) and Potato Dextrose Broth (PDB) for mold (Aspergillus niger, ATCC #16404). Test organisms, at a final concentration of 10^4 CFU/mL or 10^4 spores/mL, were applied to each well in parallel experiments to initiate the MIC evaluations. Growth medium containing no biocide was utilized as a control in each experimental setup to confirm the growth viability of each organism. Eight concentrations (2-fold dilutions) of each individual biocide were evaluated in the microbial growth inhibition studies in addition to the 64 possible combinations of these biocide concentrations. Evaluation of the individual biocide concentrations is required to achieve an inhibitory concentration end point for synergy index calculation. […] Individual wells were scored as growth or no growth based on visual organism growth turbidity.
(§8) These microorganisms are representative of natural contaminants in many consumer and industrial applications. […] (yeast and mold) or 30° C. (bacteria).

[2] = tested on: Candida albicans (C. albicans, ATCC #10231); assay: MIC / synergy evaluation in 96 well microtiter plate, yeast in Yeast Malt Extract Broth; conditions: visual turbidity; for MIC: Candida albicans, ATCC10231, single active acting alone, read-out: Minimum Inhibitory Concentration
From the text: as §1, §2, §3, §4, §5, §6, §7, §8

[3] = tested on: Aspergillus niger (A. niger, ATCC #16404); assay: MIC / synergy evaluation in 96 well microtiter plate, mold in Potato Dextrose Broth; conditions: ATCC16404, single active acting alone, visual turbidity, read-out: Minimum Inhibitory Concentration
From the text: as §1, §2, §3, §4, §5
When the sum of Qa/QA and Qb/QB is greater than one, antagonism is indicated. […] The lower the SI, the greater the synergy shown by that particular mixture. […]
MBIT synergy with a secondary biocide was determined by evaluating the minimum biocide or biocide blend concentration required to inhibit microbial growth. […] Eight concentrations (2-fold dilutions) of each individual biocide were evaluated in the microbial growth inhibition studies in addition to the 64 possible combinations of these biocide concentrations. […] Individual wells were scored as growth or no growth based on visual organism growth turbidity. […]

With O=C(O)CCCCCCCC(=O)O [Azelaic acid, azelaic acid] as the compound, how does the MIC [1] read?
The MIC was 2500 µg/mL.

What about the MIC [2] of the same compound?
Its MIC is 188 µg/mL.

What does the source list for CC(O)C(=O)O (stereo not shown) [Lactic acid, lactic acid]?
MIC [1]: 5000 µg/mL; MIC [2]: 750 µg/mL; MIC [3]: 40000 µg/mL

How did the “Minimum Inhibitory Concentration” value ([1]; single active acting alone) turn out when Cn1sc2ccccc2c1=O [MBIT, N-methyl-1,2-benzisothiazolin-3-one] was run?
Its value is 12.50 ppm.

And the “Minimum Inhibitory Concentration” value ([2]; single active acting alone)?
The value was 1.50 ppm.

C=CCCCCCCCCC(=O)O [Undecylenic acid, undecylenic acid] was tested. Which MIC [1] did it give?
The MIC was 10000 µg/mL.

And the MIC [2]?
The MIC was 7.82 µg/mL.

And the MIC [3]?
The MIC was 38 µg/mL.
